Data taken from US20070154981A1, “Insulin-producing cells derived from stem cells” (THE BOARD of TRUSTEES of the LELAND STANFORD JUNIOR …, priority 2003, published 2007).

System: human NS cells
Test: Insulin content of IPCCs derived from human NS cells, by ELISA
Format: cell-based
From the text: Human NS cells from StemCells Inc. (Palo Alto, Calif.). Until stage 1, cells are maintained in neurospheres as described in Uchida et al, 2000, Proc Natl Acad Sci U S A. 2000 Dec. 19;97(26):14720-5. […]

## CC1=C(/C=C/C(C)=C/C=C/C(C)=C/C(=O)O)C(C)(C)CCC1 [retinoic acid, all-trans-Retinoic acid]
1 micromolar retinoic acid for 6 days, stage 2 IPCCs, ELISA
  insulin levels relative to levels found in human pancreatic islets: 0.1%
Retinoic acid alone versus SHH and retinoic acid
  insulin production compared with cells cultured with SHH and retinoic acid: higher level of insulin production
